Test results taken from patent US5240961A, “Method of treating reduced insulin-like growth factor and bone loss associated with aging” (priority 1992, dated 1993).
Values joined by “and” are separate entries in the source; they are usually repeats but may differ in a detail not shown here. Equal values may be shown once. Read-outs that look alike come from different tables or passages of the source.

Columns and labels:
[1] = test system: serum osteocalcin; assay: Serum osteocalcin after oral L-carnitine, double-blind study in patients over 60 (Example 5); format: in vivo, human; conditions: for Osteocalcin: individual subjects 010-019, 2 g/day oral; for average serum osteocalcin: treatment group average
Method: (§1) The present invention is further explained by the following examples which should not be construed by way of limiting the scope of the present invention. In the following examples, serum carnitine levels were determined by the method of R. Parvin et al., Anal. Biochem., vol. 79 (1979) pp. 190-201. Serum IGF-1 concentrations were measured by immunoradiometric assay, for example, by IRMA Kit available from Diagnostic Systems Laboratories, Inc., Webster, Texas. Serum osteocalcin levels were measured according to the method of Grunaberg et al., Meth. Enzymology, vol 107 (1984) 516, and which is embodied in an osteocalcin kit available from Biomedical Technologies, Inc., Stoughton, Mass. All mice used in the animal studies were BALB/c strain which is commercially available.
(§2) Nineteen patients (over age 60) were enrolled in a preliminary double-blindstudy to establish the effect of oral L-carnitine treatment on serum IGF-1 and osteocalcin levels. Baseline, i.e., pretreatment, levels of serum IGF-1, osteocalcin and carnitine were measured by known methods. The patients were divided into two groups, control (n=9; subjects 001-009 in Table 5 below) and treatment (n=10; subjects 010-019 in Table 5 below). The treatment group received a daily dosage of 2 g of L-carnitine orally, self-administered, in four separate doses of two 250 mg tablets taken four times per day, for twelve weeks. The control group were given placebo, e.g., simple sugar. Serum samples were drawn every four weeks, and serum carnitine, IGF-1 and osteocalcin were determined.

[2] = test system: bone mineral content of thoracic vertebrae; assay: Bone mineral content of thoracic vertebrae by bone scan (Example 4); format: in vivo, human
Method: (§3) Seven adults from Example 3 agreed to receive a daily dosage of L-carnitine of 2 g/day, self-administered orally, for three months. Doses were administered four times daily, and each dose consisted of two 250 mg tablets. Of the seven individuals, two individuals dropped out of the study due to unrelated illness; thus, five remained in the study to completion. The following were evaluated by pretreatment and posttreatment comparisons: serum carnitine and serum IGF-1 by known methods, and bone mineral contents by bone scan of thoracic region, i.e., thoracic vertebrae, on a NORLAND scanner.

[3] = test system: serum carnitine; assay: Serum carnitine after oral L-carnitine in healthy adults over 60 (Example 4); format: in vivo, human; conditions: individual subjects, 2 g/day oral, three months; for concentration: 131400 min
Method: as §1, §3

[4] = as above; format: in vivo, human; conditions: human, serum, po, 2 g/day, individual subjects, 2 g/day oral, three months
Method: as §1, §3

[5] = test system: serum osteocalcin; assay: Osteocalcin response to L-carnitine in aged mice; format: in vivo, mouse (BALB/c)
Method: as §1
Forty aged mice were separated into two groups. After an initial acclimatizing period of one week, one group was fed a diet with L-carnitine supplementation for six weeks and the other was fed normal, unsupplemented feed (control). […] The average daily food for each mouse was determined by weighing the food initially placed in the food bin and weighing the remaining food. […] Mouse blood was sampled prior to beginning of the trial (pretreatment), at the end of three weeks, and at six weeks (posttreatment), and was evaluated for serum osteocalcin and carnitine levels.

[6] = Serum carnitine levels in young mice fed L-carnitine; format: in vivo, mouse (BALB/c); conditions: mouse, po, 50 mg/kg/day, 50 mg/kg/day oral
Method: as §1
Similar tests were performed on six young mice, i.e., 2 months 5 months of age. One group (n=3) was fed a diet with L-carnitine supplementation for three months, the other (n=3) was fed normal, unsupplemented feed (control). Each mouse in the test group was fed a daily oral dose of L-carnitine of about 50 mg/kg of body weight. Mouse blood was sampled prior to beginning of the trial (pretreatment) i.e., at two months of age, and at 5 months of age, and was evaluated for serum osteocalcin and carnitine levels.

[7] = test system: serum IGF-1; assay: IGF-1 response to L-carnitine supplementation in healthy adults over 60 (Example 4); format: in vivo, human; conditions: three months
Method: as §1, §3

[8] = test system: serum carnitine; assay: Serum carnitine after oral L-carnitine, double-blind study in patients over 60 (Example 5); format: in vivo, human; conditions: individual subjects 010-019, 2 g/day oral
Method: as §1, §2

[9] = as above; format: in vivo, human; conditions: human, serum, po, 2 g/day
Method: as §1, §2

[10] = read-out: Carnitine, Free, posttreatment
[11] = read-out: Carnitine, Total, posttreatment

## C[N+](C)(C)C[C@H](O)CC(=O)[O-] [L-carnitine]
[1]; 4, 8 and 12 weeks
  osteocalcin vs control, significance: just below significance
[1]; 4 weeks
  Osteocalcin: 11.8 ng/mL and 13.6 ng/mL and 7.4 ng/mL and 11.5 ng/mL and 7.9 ng/mL and 10.4 ng/mL and 11.6 ng/mL and 3.6 ng/mL and 5.9 ng/mL
[1]; 8 weeks
  Osteocalcin: 11.9 ng/mL and 10.2 ng/mL and 7.0 ng/mL and 10.8 ng/mL and 9.0 ng/mL and 11.0 ng/mL and 2.4 ng/mL and 4.9 ng/mL
[1]; 12 weeks
  Osteocalcin: 9.3 ng/mL and 11.8 ng/mL and 8.7 ng/mL and 7.0 ng/mL and 9.1 ng/mL and 11.4 ng/mL and 6.5 ng/mL
[1]; eight weeks
  average serum osteocalcin: 8.4 ng/mL
[1]; four weeks
  average serum osteocalcin: 9.2 ng/mL
[1]; twelve weeks
  average serum osteocalcin: 9.1 ng/mL
[2]; all patients, after treatment
  bone mineral content of the thoracic vertebral region: all patients demonstrated an increase in bone mineral content of the thoracic vertebral region
[2]; individual subjects, 2 g/day oral, three months
  Bone mineral content, post treatment: 427.0 g and 1118.4 g and 986.1 g and 736.2 g and 887.7 g
[2]; individual subjects, post vs pre treatment, 2 g/day oral, three months
  Bone mineral content, change: +3.85% and +1.39% and +5.69% and +0.72% and +7.35%
[3]; [10]
  concentration: 57 µM and 55.4 µM and 38.6 µM and 44.8 µM
[3]; [11]
  concentration: 70.7 µM and 68.9 µM and 54.7 µM and 73.4 µM
[3]; ratio esterified/free
  Carnitine E/F, posttreatment: 0.32 and 0.24 and 0.42 and 0.64
[4]; [10]
  concentration at 2190 h: 77.2 µM
[4]; [11]
  concentration at 2190 h: 102 µM
[5]; aged mice (18 months), 50 mg/kg/day oral in feed, six weeks
  Osteocalcin: 29.6 ± 3.6 ng/mL
[5]; aged mice, 50 mg/kg/day
  significance of difference in osteocalcin, treated vs control (p, student's t test): ≤ 0.05
[6]; read-out: Serum Carnitine, Free
  concentration at 2190 h: 60.2 µM
[6]; read-out: Serum Carnitine, Total
  concentration at 2190 h: 84.2 µM
[7]; 2 g/day oral
  significance of IGF-1 increase (p, paired comparisons): ≤ 0.05
[7]; individual subjects 001-005, 2 g/day oral
  IGF-1, posttreatment: 396 ng/mL and 280 ng/mL and 148 ng/mL and 270 ng/mL and 264 ng/mL
[7]; mean, 2 g/day oral, pretreatment mean 170
  mean IGF-1 after treatment: 272 ng/mL
[8]; 4 weeks, 40320 min, read-out: Serum carnitine, Free
  concentration: 54.4 µM and 61.6 µM and 36.6 µM and 66.6 µM and 67.4 µM and 52 µM and 67.2 µM and 40.4 µM and 61.2 µM and 85 µM
[8]; 4 weeks, 40320 min, read-out: Serum carnitine, Total
  concentration: 71.6 µM and 72.5 µM and 52.4 µM and 80.3 µM and 120 µM and 67 µM and 84.4 µM and 54.3 µM and 73 µM and 108 µM
[8]; 8 weeks, 80640 min, read-out: Serum carnitine, Free
  concentration: 58.6 µM and 52.6 µM and 65.2 µM and 74.6 µM and 57 µM and 67.4 µM and 39.4 µM and 61.2 µM
[8]; 8 weeks, 80640 min, read-out: Serum carnitine, Total
  concentration: 76.6 µM and 64.8 µM and 72.5 µM and 91.7 µM and 67.9 µM and 83.4 µM and 51.5 µM and 83.9 µM
[8]; 12 weeks, 120960 min, read-out: Serum carnitine, Free
  concentration: 61 µM and 49.6 µM and 70 µM and 55.8 µM and 69.6 µM
[8]; 12 weeks, 120960 min, read-out: Serum carnitine, Total
  concentration: 79.3 µM and 62 µM and 75.7 µM and 70.2 µM and 94.4 µM
[9]; individual subjects 010-019, 2 g/day oral, 8 weeks, read-out: Serum carnitine, Free
  concentration at 1344 h: 65.4 µM
[9]; individual subjects 010-019, 2 g/day oral, 8 weeks, read-out: Serum carnitine, Total
  concentration at 1344 h: 88 µM
[9]; individual subjects 010-019, 2 g/day oral, 12 weeks, read-out: Serum carnitine, Free
  concentration at 2016 h: 72.6 µM
[9]; individual subjects 010-019, 2 g/day oral, 12 weeks, read-out: Serum carnitine, Total
  concentration at 2016 h: 101 µM
[9]; treatment group average, eight weeks, read-out: average total carnitine
  concentration at 1344 h: 75.6 µM
[9]; treatment group average, four weeks, read-out: average total carnitine
  concentration at 672 h: 78.4 µM
[9]; treatment group average, twelve weeks, read-out: average total carnitine
  concentration at 2016 h: 81.5 µM
